Reference: patent US11821109B2, “Compartmentalised combinatorial chemistry by microfluidic control” (President and Fellows of Harvard College, priority 2004, dated 2023)
pKi: −log10 of the molar value. Each block holds one compound with its values, some of them ahead of it.

Assays:
[1] = target: T1, E. coli β-galactosidase (LacZ) (Escherichia coli, UniProt P00722); assay: LacZ inhibition assay in microfluidic droplets with fluorogenic substrate FMG; type: biochemical
Protocol: In the enzyme inhibition assay, the rate of catalysis is determined by using a non-fluorescent substrate for LacZ, fluorescein mono-β-D-galactoside (FMG), and measuring the appearance of the fluorescent product, fluorescein (excitation […], emission 514 nm). All components of the LacZ inhibition assay are dissolved in assay buffer (10 mM MgCl2, 50 mM NaCl, 1 mM DTT, 100 μg/ml BSA, 10
Leading into each droplet forming module (FIG. 15) are two TEFLON® tubes leading from syringe pumps. The channels leading from each tube merge to create a single flow before entering the droplet forming module. The two syringes feeding into the first droplet forming module contain, (a) 50 μM PETG in assay buffer, and (b), assay buffer. The two syringes feeding into the second droplet forming module contain, (c) 100 nM LacZ in assay buffer, and (d), assay buffer. The two syringes feeding into the third droplet forming module contain, (e) 5 mM FMG in assay buffer, and (f), assay buffer. The final concentration of each component in each droplet is independently controllable by adjusting relative flow rates of each component and buffer solution while maintaining a constant combined flow rate from both syringes.
The first droplet fusion mixes the inhibitor (PETG) with the enzyme (LacZ). After the combined droplet has spent two minutes in a delay line it is fused with a third droplet containing the fluorogenic enzyme substrate (FMG). Finally, after all the components are mixed the reaction is observed by measuring fluorescence of individual droplets or by integrating fluorescent light from droplets with the same concentration of each component during 10-second exposure time at multiple points in the second 10 min long delay line. Each fluorescence intensity value at different positions is proportional to the amount of product at different reaction times. Rate of product formation is linear during initial reaction time and initial rate (v) can be determined from linear fitting. […]

[2] = target: T1, E. coli β-galactosidase (LacZ); conditions: Huang, 1991, cited from earlier work
[3] = Compartmentalisation of small molecules in water-in-fluorocarbon emulsions (exchange between microdroplets); type: physicochemical; conditions: water-in-perfluorooctyl bromide emulsion; 24 hours after mixing
Protocol: Water-in-fluorocarbon emulsions containing 95% (v/v) perfluorooctyl bromide, 5% (v/v) phosphate buffered saline containing the molecule of interest in solution, and 2% (w/v) C8F17C11H22OP(O)[N(CH2CH2)2O]2 (F8H1 IDMP) as surfactant were formed essentially as (Sadtler et al., 1996) by extrusion (15 times) through 14 μm filters (Osmonics) or by homogenising for 5 min at 25,000 r.p.m. using an Ultra-Turrax T8 Homogenizer (DCA) with a 5 mm dispersing tool. Emulsions were made containing a series of small fluorescent molecules dissolved in the aqueous phase at concentrations from […] to 2 mM. These molecules, including calcein, texas red, fluorescein, coumarin 102, 7-hydroxycoumarm-3-carboxylic acid and 7-diethylamino-4-methyl coumarin (coumarin 1), had molecular weights from 203 to 625 Da and Log P values—calculated using SRC's Log Kow/KowWin Program (Meylan and Howard, 1995)—ranging from −0.49 to 4.09. […]
Compartmentalisation of small molecules in a water-in-fluorocarbon emulsions made using microfluidic systems. […] These molecules, including calcein, texas red, fluorescein, coumarin 102, 7-hydroxycoumarin-3-carboxylic acid and 7-diethylamino-4-methyl coumarin (coumarin 1), had molecular weights from 203 to 625 Da and Log P values—calculated using SRC's Log Kow/KowWin Program (Meylan and Howard, 1995)—ranging from −0.49 to 4.09. […]

PTP1B = target: T2, PTP1B (Homo sapiens, UniProt P18031); conditions: cited from earlier work
T2 sequence (P18031 1-435): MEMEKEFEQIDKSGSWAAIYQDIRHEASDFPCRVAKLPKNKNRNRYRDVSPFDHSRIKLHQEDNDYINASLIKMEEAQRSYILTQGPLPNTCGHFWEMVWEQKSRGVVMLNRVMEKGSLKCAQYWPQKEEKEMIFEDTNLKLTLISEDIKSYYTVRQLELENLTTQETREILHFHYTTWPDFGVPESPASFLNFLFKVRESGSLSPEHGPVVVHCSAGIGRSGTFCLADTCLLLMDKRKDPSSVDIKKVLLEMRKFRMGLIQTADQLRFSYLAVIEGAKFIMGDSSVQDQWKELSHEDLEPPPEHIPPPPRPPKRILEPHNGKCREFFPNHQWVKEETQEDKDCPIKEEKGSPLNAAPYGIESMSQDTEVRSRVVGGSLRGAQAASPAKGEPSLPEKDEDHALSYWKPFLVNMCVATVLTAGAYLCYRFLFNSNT

[4] = target: T3, human recombinant PTP1B, residues 1-322 (Homo sapiens, UniProt P18031); assay: Screening for PTP1B inhibitors in microcapsules in a microfluidic system, fluorogenic substrate DiFMUP; type: biochemical; conditions: Example 2, 100 μM compound solution, PTP1B 50 mU/ml
T3 construct: human recombinant PTP1B, residues 1-322; purchased Biomol Research Laboratories, Inc
T3 sequence (P18031 1-322): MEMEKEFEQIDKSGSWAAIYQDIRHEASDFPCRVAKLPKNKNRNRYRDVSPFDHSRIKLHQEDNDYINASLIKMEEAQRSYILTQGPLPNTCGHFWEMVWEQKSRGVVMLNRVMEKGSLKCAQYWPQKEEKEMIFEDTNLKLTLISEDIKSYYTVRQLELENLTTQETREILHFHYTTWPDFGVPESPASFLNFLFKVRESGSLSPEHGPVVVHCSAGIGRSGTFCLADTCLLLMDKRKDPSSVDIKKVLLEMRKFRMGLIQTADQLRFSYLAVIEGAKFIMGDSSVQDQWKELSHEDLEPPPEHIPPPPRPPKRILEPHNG
Protocol: All water-soluble reagents are dissolved in (25 mM HEPES, pH 7.4, 125 mM NaCl, 1 mM EDTA), a buffer compatible with PTP1B activity. […] Each microcapsule containing target enzyme is fused with a microcapsule containing compound 2 or a microcapsule containing hydrocinnamic acid. Microcapsules containing either compound 2 or hydrocinnamic acid can be formed by switching between injection with syringes containing compound 2 and hydrocinnamic acid.
After microcapsule fusion the contents are rapidly mixed. After this point the microcapsules are run for up to 1 min through a 60 cm long microchannel (to allow inhibitor binding). This microchannel is then merged with a second microchannel containing aqueous microcapsules containing the fluorogenic PTP1B substrate 6,8-difluoro-4-methylumbelliferyl phosphate (DiFMUP) (Molecular Probes) in 25 mM HEPES, pH 7.4, 125 mM NaCl, 1 mM EDTA and the microcapsules fused pairwise. […] Fluorescence of the microcapsules due to production of DiFMU (excitation/emmission maxima 358/452 nm; blue fluorescence) is measured. […]
The 96 mixtures are distributed into 96 wells of a microtitre plate. […] Inhibitors reduce the amount of non-fluorescent substrate (DiFMUP) converted to the dephosphorylated product (DiFMU; excitation/emmission maxima 358/452 nm; blue fluorescence). Microcapsule fluorescence is then analysed.

[5] = 30 nM LacZ, 0 to 13 μM PETG, 10 to 700 μM FMG

T1 sequence (P00722 2-1024): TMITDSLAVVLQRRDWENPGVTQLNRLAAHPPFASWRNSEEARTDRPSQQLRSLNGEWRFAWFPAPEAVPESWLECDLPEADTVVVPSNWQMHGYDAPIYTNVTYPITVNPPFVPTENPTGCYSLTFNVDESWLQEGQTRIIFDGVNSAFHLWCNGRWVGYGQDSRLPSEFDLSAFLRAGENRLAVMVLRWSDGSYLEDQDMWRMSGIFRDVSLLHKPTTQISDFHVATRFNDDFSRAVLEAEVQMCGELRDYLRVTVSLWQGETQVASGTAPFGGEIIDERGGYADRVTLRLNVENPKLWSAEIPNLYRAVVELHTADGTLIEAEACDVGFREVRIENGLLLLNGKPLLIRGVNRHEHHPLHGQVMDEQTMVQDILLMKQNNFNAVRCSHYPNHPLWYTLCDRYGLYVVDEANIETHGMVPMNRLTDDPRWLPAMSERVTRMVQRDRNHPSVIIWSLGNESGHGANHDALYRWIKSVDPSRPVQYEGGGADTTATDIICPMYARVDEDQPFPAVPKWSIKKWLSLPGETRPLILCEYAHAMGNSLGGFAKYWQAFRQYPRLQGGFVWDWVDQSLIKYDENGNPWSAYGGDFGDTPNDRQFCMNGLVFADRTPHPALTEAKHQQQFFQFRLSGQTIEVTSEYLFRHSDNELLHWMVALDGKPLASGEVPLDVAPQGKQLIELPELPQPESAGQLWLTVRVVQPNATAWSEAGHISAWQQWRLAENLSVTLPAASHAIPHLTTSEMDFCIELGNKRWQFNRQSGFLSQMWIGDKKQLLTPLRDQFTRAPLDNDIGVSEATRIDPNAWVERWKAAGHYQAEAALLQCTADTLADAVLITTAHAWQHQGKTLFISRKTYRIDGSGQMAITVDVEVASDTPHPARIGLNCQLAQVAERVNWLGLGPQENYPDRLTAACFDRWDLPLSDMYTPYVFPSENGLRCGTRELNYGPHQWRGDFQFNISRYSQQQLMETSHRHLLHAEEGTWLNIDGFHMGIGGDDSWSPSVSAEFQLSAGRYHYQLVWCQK

Compound: O=C1OC2(c3ccc(O)cc3Oc3cc(O[C@@H]4O[C@H](CO)[C@H](O)[C@H](O)[C@H]4O)ccc32)c2ccccc21 (stereo partly drawn) [FMG, fluorescein mono-β-D-galactoside]
XM of FMG for LacZ as determined [1, 5]: within 20% of the previously published value
XM of FMG for LacZ, previously published value [2]: 118 µM

Compound: OCC1OC(SCCc2ccccc2)C(O)C(O)C1O [PETG, phenylethyl β-D-thiogalactopyranoside]
Ki of PETG for LacZ as determined [1, 5]: within the range of the previously published value
Mode of inhibition ([1]; Lineweaver-Burk plot): competitive
pKi ([2]; read-out: Ki of PETG for LacZ, previously published value): 6.01

Exchange between microdroplets/compartments [3]: No exchange
Compound: O=C(O)CN(CC(=O)O)Cc1cc2c(cc1O)Oc1cc(O)c(CN(CC(=O)O)CC(=O)O)cc1C21OC(=O)c2ccccc21 [calcein]

Fluorescence of the microcapsules due to production of DiFMU [4]: exhibiting blue fluorescence
Compound: O=C(O)CCc1ccccc1 [hydrocinnamic acid]
PTP1B inhibitor or not (statement) (PTP1B): not a PTP1B inhibitor

Exchange between microdroplets/compartments [3]: No exchange
Compound: texas red
